The source of these data is patent publication US20240082342A1, “PEPTIDE THERAPEUTICS FOR INCREASING LUNG CELL VIABILITY” (BOARD OF REGENTS, THE UNIVERSITY OF TEXAS SYSTEM, priority 2018, published 2024).

For experiment [1], the system named is ATII cells and BALF of IL-17A treated mice. Description: IL-17A-induced lung injury in mice. It counts as in vivo, mouse. The following applies: for A2EC p53, PAI-1 and apoptosis: WT mice exposed to IL-17A. As to the method:
IL-17A is induced in passive tobacco smoke (PTS) exposed lung injury. […] Further, IL-17A induced ^p15Sp53 was inhibited following treatment of mice CSP7 when compared with those treated with saline and control peptide. To further test whether IL-17A induced ^p15Sp53 alters PAI-1 expression and ATII apoptosis, ATII cells of IL-17A treated mice for PAI-1 and apoptotic markers were analyzed. IL-17A induced the expression of PAI-1 and cl.Cas-3, and inhibited Sirt-1 expression in ATII cells. […] In addition, CSP7 treatment found to inhibit serine phosphorylation of p53 by neutralizing elevated IL-17A due to PTS exposure.
To test the importance of miR-34a mediated deacetylation of p53 IL-17A or PTS induced lung injury, miR34a conditional knockout mice were treated with tamoxifen. miR34a conditional knockout mice treated with IL-17A (3 μg/mice) was administered with CSP7 and CP a day later. ATII cells isolated from these mice were screened for PAI-1, Sirt-1 and apoptotic markers. […] Further, CSP7 treatment had little effect in miR-34a^cKo mice since these mice resist IL-17A or PTS injury.

Another experiment concerns AECs from COPD lungs. Briefly: AECs from COPD lungs treated in vitro for 48 h. It counts as cell-based, human. As to the method:
Primary Airway Epithelial Cells (AECs); Normal, Human (ATCC® PCS-301-010™) and Primary Airway Epithelial Cells; COPD (ATCC® PCS-301-013™) were obtained from the ATCC and cultured in Airway Cell Basal Medium with glutamine, Extract P, HLL Supplement, and AEC Supplement. containing and 1% penicillin-streptomycin. The cells were maintained at 37° C. in a humidified atmosphere at 5% CO2. All media, supplements, and antibiotics were purchased from ATCC.
CSP7 and CP were dissolved in DMSO and diluted in HBSS for working concentration of 300 µg/2 ml. These peptides were used for the treatment of COPD in vitro and IP injection of mice. For nasal insufflation, the peptides were formulated as follows: 0.579 mg/ml of CSP7/CP was added to 15.456 mg/ml of lactose monohydrate in phosphate buffered saline and the pH was adjusted to 8.4 to give a clear solution. The solution was filtered through a 0.22-micron syringe filter (Bhandary et al. supra; Tiwari et al., supra).
The cells were lysed with RIPA buffer (Pierce, USA) containing protease inhibitor cocktail (Roche, Germany) and phosphatase inhibitor cocktail (Sigma-Aldrich, USA) on ice for 30 min. After centrifugation at 12,000×g and 4° C. for 20 min, the supernatants were collected. The protein concentrations were determined using the BCA protein assay kit (Pierce, USA). Cell lysates were mixed with 5×SDS-PAGE sample buffer and boiled for 5 min. Thirty micrograms of protein was subjected to 10% SDS-PAGE electrophoresis and transferred to nitrocellulose membranes. The membranes were blocked with 5% milk and then incubated at 4° C. for 16 h with the following diluted primary antibodies (Tiwari et al., supra). The blots were then washed and probed with horseradish peroxidase-conjugated secondary IgG antibodies. The bound antibodies were visualized using SuperSignal™ Maximum Sensitivity Substrate (Thermo Fisher Scientific, USA). For normalization, the membranes were stripped with Restore Western blot stripping buffer and incubated with the following primary antibodies: anti-ERK (1:1000), anti-MUC5AC (1:1000), anti-HDAC6(1:1000), anti-SPDEF(1:1000), anti-FOXA2(1:1000), anti-FOXA3 (1:1000) anti-LC3(1:1000), anti-Beclin1(1:1000), anti-p62(1:1000), anti-p53(1:1000), anti-PAI-1(1:1000) and anti-GAPDH (1:1000).
Cell culture. Primary human AECs from histologically normal and COPD lungs were purchased from ATCC. These cells were cultured in AEC Basal Medium with glutamine, extract P, HLL Supplement, and AEC supplement and 1% penicillin-streptomycin at 37° C. and 5% CO2. AT2 cells were isolated from C57BL/6 mice following the method of Corti and colleagues (Roscioli et al, 2018) with minor modifications. The cells were plated on plastic culture dishes precoated with anti-CD-32 and anti-CD-45 antibodies for 2 h at […]. Non-adherent cells were collected, and the purity of AT2 cell preparations was assessed by […] for inclusion bodies (Shetty et al, 2012).
Peptide preparation. CSP7 and CP were dissolved in DMSO and diluted in HBSS as described elsewhere (Marudamuthu et al., SciTransl Med 11: eaat2848, 2019. doi: 10.1126/scitranslmed.aat2848). These peptides were used to treat AECs in vitro or IP injection of CS-exposed mice. For airway delivery by liquid nebulization, CSP7 (0.579 mg/ml) was added to PBS containing lactose monohydrate (15.456 mg/ml). The pH was adjusted to 8.4 to give a clear solution, filtered through a 0.22-micron syringe filter as described earlier (Marudamuthu et al., 2019.)
Protein extraction and Western blot assay. AEC and AT2 cell lysates were prepared using RIPA buffer (Pierce, USA) containing a protease inhibitor cocktail (Roche, Germany) and phosphatase inhibitor cocktail (Sigma-Aldrich, USA). AEC and AT2 cell lysates were subjected to Western blotting using ERK, MUC5AC, HDAC6, SPDEF, FOXA2, FOXA3, LC3, p53, PAI-1, Acp53, S15p53, cleaved caspase-3, β-galactosidase and R-actin antibodies at 1:500-1:1000 dilution (Table 1). […]

Another experiment relates to PP2A. Briefly: PP2A activity assay in AECs and lung tissues from COPD lungs. It counts as cell-based, human. How it is done: PP2A Activity Determination and PP2A Inhibitors PP2A activity was determined using the Millipore PP2A activity assay (17-313; Millipore) (Nath S, et al., Am J Respir Cell Mol Biol. 59:695-705, 2018 December).
Determination of protein phosphatase 2A (PP2A) activity. PP2A activity was determined in isolated AECs and lung homogenates using the PP2A activity assay kit (Millipore) (Nath et al, Am J Respir Cell Mol Biol 59:695-705, 2018. doi: 10.1165/rcmb.2018-01730C.)

“Also recorded” adds a separate entry of the source.

On to “DGIWKASFTTFTVTKYWFYR (listed as Homo sapiens) [CSP, 20 residue caveolin-1 scaffolding domain peptide]”, for which the “A2EC p53, PAI-1 and apoptosis” value in experiment [1] is “reduced A2EC p53, PAI-1 and apoptosis in vivo”.

Turning to “FTTFTVT (listed as Homo sapiens) [CSP7, heptapeptide fragment of the caveolin-1 scaffolding domain peptide CSP]”, in the experiment with AECs from COPD lungs, the “Beclin-1 and ATG5 expression” value was “mitigate”; the ERK phosphorylation result is “decrease in ERK phosphorylation; also recorded: reversed in AECs exposed to CSP7”; the “FOXA2, acetylated alpha-tubulin, CAV1, p53 and PAI-1 proteins” value is “restoration of FOXA2 and acetylated alpha-tubulin, and inhibition of CAV1, p53 and PAI-1”; the LC3-II accumulation result is listed as “reversed”. Besides, in the experiment with AECs from COPD lungs, the MMP12 expression result was “decreased; also recorded: markedly reduced the MMP12 level”; the “PP2A and CIP2A protein (Western blot)” value is recorded as “reversed”; the “PP2A mRNA” value was “improved”; the p62 expression result was “significantly elevated”. For the same substance, the “MUC5AC, HDAC6, PAI-1, p53, Cav1, FOXA3, SPDEF, LC3, FOXA2, Ac-Tub proteins (Western blot)” value in the experiment on AECs from COPD lungs (48 h) is “reversed; also recorded: reduced the expression of MUC5AC, HDAC6, FOXA3, SPDEF and, LC3”. Moreover, the “IL-17A induced serine phosphorylation of p53 (p15Sp53) in ATII cells” value in experiment [1] (IL-17A treated mice, vs saline and control peptide) is on record as “inhibited”. Also, the “A2EC p53, PAI-1 and apoptosis” value in experiment [1] was “reduced A2EC p53, PAI-1 and apoptosis in vivo”. Also, in experiment [1] (miR34a conditional knockout mice treated with IL-17A), the “effect in miR-34a^cKO mice” value was “little effect”. For the same substance, the “BALF myeloperoxidase (MPO) activity” value in experiment [1] (mice with IL-17A or PTS (10 weeks) injury) was “significantly reduced the MPO activity”. In the experiment with PP2A (AECs from COPD lungs, 48 h), the PP2A activity result is on record as “increased activity of PP2AC; also recorded: significantly improved”.

As for “WGIDKAFFTTSTVTYKWFRY [CP, scrambled control peptide with the same amino acid composition as CSP, reference compound]”, in the experiment with AECs from COPD lungs, the ERK phosphorylation result is “still showed elevated phospho-ERK1/2”. Further, the PP2A activity entry was “failed to increase the PP2A activity” in the experiment on PP2A (AECs from COPD lungs, 48 h) and “minimal effect” in the experiment on PP2A (COPD lung tissues ex vivo, 10 μM, 72 h).
